Laboratory results reported in patent US20050288333A1 (priority 2004, published 2005).
Counter-ions that a name gives are not always drawn. Like-named read-outs stand apart in the source and are kept apart here.

Assays:
[1] = target: T1, α4β2 nicotinic acetylcholine receptor (Rattus norvegicus, UniProt P09483+P12390); assay: [3H]-N-methylcarbamyl choline (3H-MCC) displacement, rat cerebral cortex membranes; format: binding
T1 construct: from tissue; host or cells: rat cerebral cortex membranes
Protocol: Binding at the α4β2 nicotinic acetyicholine receptor can be measured as described in Abood, et al., Biochem. Pharmacol., 1986, 35:4199, or in Boksa, et al, Eur. J Pharmacol., 1987, 139:323. In essence, washed rat cerebral cortex membranes suspended in ice-cold saline (pH 7.4) were incubated with [^3H]-N-methylcarbamyl choline (^3H—MCC) for 60 minutes before being washed free of unbound radioligand with two rapid washes of the saline solution, using vacuum filtration. The glass filters used to collect the membranes for scintillation counting were pre-equilibrated with polyethyleneimine to reduce ligand binding by the filters.
Atropine sulfate at 12 μM was used to block muscarinic binding sites. Non-specific binding was assessed in the presence of 100 μM carbamylcholine. Thus, the Kd values of the test compounds were determined by their ability to compete for [^3H-acetyl]choline or ^3H—MCC binding. […] Some representative compounds of Formula I were tested for their ability to displace [^3H]—MCC. The Kl values presented in the table are mean values obtained from two separate experiments. […] In Table 3, “NA.” means that the data are not available.

α4β2 nicotinic receptors = α4β2 nicotinic receptors (Rattus norvegicus, UniProt P09483+P12390); assay: [3H]cytisine binding displacement, washed whole rat brain membranes
Sequence of α4β2 nicotinic receptors (P09483 31-630): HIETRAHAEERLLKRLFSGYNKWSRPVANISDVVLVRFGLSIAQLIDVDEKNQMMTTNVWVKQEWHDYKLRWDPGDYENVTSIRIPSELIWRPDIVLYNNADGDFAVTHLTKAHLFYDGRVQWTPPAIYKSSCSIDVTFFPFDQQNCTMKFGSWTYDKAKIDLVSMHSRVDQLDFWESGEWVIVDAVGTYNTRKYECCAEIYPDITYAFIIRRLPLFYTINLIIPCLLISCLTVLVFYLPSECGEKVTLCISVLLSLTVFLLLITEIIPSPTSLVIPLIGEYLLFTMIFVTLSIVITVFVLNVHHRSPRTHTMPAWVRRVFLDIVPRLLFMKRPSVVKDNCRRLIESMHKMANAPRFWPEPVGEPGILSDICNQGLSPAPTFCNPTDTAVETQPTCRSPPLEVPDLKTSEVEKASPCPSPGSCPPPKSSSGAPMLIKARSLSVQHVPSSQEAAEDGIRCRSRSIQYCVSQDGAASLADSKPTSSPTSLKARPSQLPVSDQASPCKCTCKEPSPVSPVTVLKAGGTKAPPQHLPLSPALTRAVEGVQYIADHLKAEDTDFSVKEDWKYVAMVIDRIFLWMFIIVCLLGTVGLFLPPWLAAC
Sequence of α4β2 nicotinic receptors (P12390 25-500): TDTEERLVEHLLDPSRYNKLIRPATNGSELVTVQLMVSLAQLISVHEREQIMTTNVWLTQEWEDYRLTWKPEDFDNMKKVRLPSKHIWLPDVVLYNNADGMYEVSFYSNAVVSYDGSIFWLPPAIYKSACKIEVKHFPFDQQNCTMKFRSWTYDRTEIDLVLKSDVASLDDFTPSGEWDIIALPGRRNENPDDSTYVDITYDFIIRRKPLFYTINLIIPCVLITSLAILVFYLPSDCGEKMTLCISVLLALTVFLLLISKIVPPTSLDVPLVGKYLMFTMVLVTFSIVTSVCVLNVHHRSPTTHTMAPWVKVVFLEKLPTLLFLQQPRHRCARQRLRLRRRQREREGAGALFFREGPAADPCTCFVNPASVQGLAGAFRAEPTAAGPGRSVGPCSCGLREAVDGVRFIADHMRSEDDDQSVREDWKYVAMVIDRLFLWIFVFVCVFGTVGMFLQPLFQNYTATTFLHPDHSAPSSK

[2] = Kitagawa et al. 2003; cited from earlier work
α7 receptors = assay: Residual inhibition of ACh response after exposure to compound, oocytes; format: cell-based; conditions: 100 pM compound
Protocol: Peak currents were measured for responses of α4β2 receptors to agonist application, because desensitization of this receptor subtype was slow enough not to affect the concentration-response relation measured in this manner. Currents resulting from agonist application to the more rapidly desensitizing α7 receptors were integrated over a period of […] after application commenced. To compare data obtained from different oocytes, a standard response normalization procedure was used. Agonist responses of a particular oocyte were always normalized relative to its response to a standard acetylcholine (ACh) control. Before actual measurements of agonist properties, several ACh pulses separated by 5-mm intervals were applied until the responses of the oocyte to ACh became steady. After washing for 5 mm, the peak current response to the test compound was measured. After another 5-mm washing period, ACh was again applied to measure the residual responsiveness of the receptors to ACh after exposure to the test substance. The concentration-response data were fitted with a modified Hill equation, I=Imax [agonist]^nH/([agonist]^nH+EC50), to estimate apparent efficacy (normalized maximal response) and EC50.
The numbers in parentheses in Table 2 are calculated EC50, values for just the ionized forms.

[3] = inhibitory concentration of the ionized form, calculated assuming only the cationic form interacts, read-out: [3H] Cytisine Binding Ki(Ion)
[4] = rat brain membranes, radioligand 1 nM, mean±S.E.M. of three experiments, read-out: [3H] Cytisine Binding Ki ± S.E.M.
[5] = displacement of [3H]-MCC, mean of two experiments, Cheng-Prusoff with Kd 5 nM, read-out: α4β2 Ki

T1 sequence (P09483 31-630): as the sequence (P09483 31-630) above
T1 sequence (P12390 25-500): as the sequence (P12390 25-500) above

Molecule | Ki ([1]; read-out: α4β2 Ki) | further results
CCCOc1ccc(C=C2CCCN=C2c2cccnc2)c(OCCC)c1 [GTS-53, 3-(2,4-Dipropoxybenzylidene)anabaseine] | 4500 nM | 
CCCCCOc1ccc(C=C2CCCN=C2c2cccnc2)c(O)c1 [GTS-56, 3-(2-Hydroxy-4-pentoxybenzylidene)anabaseine] | 250 nM | 
COc1ccc(/C=C2\CCCN=C2c2cccnc2)c(OC)c1 [GTS-21, 3-(2,4-Dimethoxybenzylidene)anabaseine] | 120 nM | Ki (α4β2 nicotinic receptors; [3]): 158 nM; Ki (α4β2 nicotinic receptors; [4]): 253 ± 37 nM; human toxicity in phase I clinical trial [2]: did not display significant human toxicity; residual inhibition (reduced response to ACh 5 min after washing) (α7 receptors): ~50%
Cc1ccncc1C1=NCCCC1 [GTS-28, 4′-Methylanabaseine] |  | Ki [1]: 3800 nM
COc1cc(OC)c(C=C2CCCN=C2c2cccnc2)c(OC)c1 [GTS-35, 3-(2,4,6-Trimethoxybenzylidene)anabaseine] | 170 nM | 
Clc1ccc(C=C2CCCN=C2c2cccnc2)cc1 [GTS-8, 3-(4-Chlorobenzylidene)anabaseine] | > 5000 nM | 
COc1ccc(C=C2CCCN=C2c2cccnc2)c(O)c1 [GTS-51, 3-(2-Hydroxy-4-methoxybenzylidene)anabaseine] | 1500 nM | Ki (α4β2 nicotinic receptors; [3]): 128 nM; Ki (α4β2 nicotinic receptors; [4]): 387 ± 25 nM
COc1ccccc1C=C1CCCN=C1c1cccnc1 [GTS-16, 3-(2-Methoxybenzylidene)anabaseine] | 830 nM | 
COc1cc(C=C2CCCN=C2c2cccnc2)ccc1O [GTS-23, 3-(3-Methoxy-4-hydroxybenzylidene)anabaseine] | > 5000 nM | 
Cc1ccc(C=C2CCCN=C2c2cccnc2)cc1 [GTS-48, 3-(4-Methylbenzylidene)anabaseine] | 2000 nM | 
Oc1ccc(C=C2CCCN=C2c2cccnc2)cc1 [GTS-7, 3-(4-Hydroxybenzylidene)anabaseine] | 25 nM | 
Nc1ccc(C=C2CCCN=C2c2cccnc2)cc1 [GTS-13, 3-(4-Aminobenzylidene)anabaseine] | 170 nM | 
COc1cccc(C=C2CCCN=C2c2cccnc2)c1 [GTS-20, 3-(3-Methoxybenzylidene)anabaseine] |  | Ki [1]: 4000 nM
Clc1ccc(C=C2CCCN=C2c2cccnc2)c(Cl)c1 [GTS-38, 3-(2,4-Dichlorobenzylidene)anabaseine] | 2000 nM | 
CCCCCOc1ccc(C=C2CCCN=C2c2cccnc2)c(OCCCCC)c1 [GTS-55, 3-(2,4-Dipentoxybenzylidene)anabaseine] | 2500 nM | 
N#Cc1ccc(C=C2CCCN=C2c2cccnc2)cc1 [GTS-5, 3-(4-Cyanobenzylidene)anabaseine] | > 5000 nM | 
Cc1cncc(C2=NCCCC2)c1 [GTS-60, 5′-Methylanabaseine] |  | Ki [1]: 130 nM

Molecule | Ki ([1]; read-out: α4β2 Ki) | further results
C(=C1CCCN=C1c1cccnc1)c1ccoc1 [GTS-45, 3(3-Furylidene)anabaseine] | 860 nM | 
CC(C)Oc1ccc(C=C2CCCN=C2c2cccnc2)c(OC(C)C)c1 [GTS-54, 3-(2,4-Diisopropoxybenzylidene)anabaseine] | 1000 nM | 
Cc1ccc(C=C2CCCN=C2c2cccnc2)c(C)c1 [GTS-39, 3-(2,4-Dimethylbenzylidene)anabaseine] | 1000 nM | 
O=[N+]([O-])c1ccc(C=C2CCCN=C2c2cccnc2)cc1 [GTS-3, 3-(4-Nitrobenzylidene)anabaseine] | > 5000 nM | 
COc1ccc(C=C2CCCN=C2c2cccnc2)cc1 [GTS-2, 3-(4-Methoxybenzylidene)anabaseine] |  | Ki [1]: 320 nM
Oc1ccc(C=C2CCCN=C2c2cccnc2)c(O)c1 [GTS-52, 3-(2,4-Dihydroxybenzylidene)anabaseine] | 450 nM | Ki (α4β2 nicotinic receptors; [3]): 103 nM; Ki (α4β2 nicotinic receptors; [4]): 206 ± 16 nM
Cc1ccc(C2=NCCCC2)cn1 [GTS-26, 6′-Methylanabaseine] |  | Ki [1]: 26 nM
COc1ccc(C=C2CCC[N+](C)=C2c2cccnc2)c(OC)c1 [GTS-58, 1-Methyl-3-(2,4-djmethoxybenzylidene)anabaseine trifluoroacetate] |  | Ki [1, 5]: > 5000 nM
Cc1cc(C)c(C=C2CCCN=C2c2cccnc2)c(C)c1 [GTS-40, 3-(2,46,-Trimethylbenzylidene)anabaseine] | 500 nM | 
C(=C1CCCN=C1c1cccnc1)c1ccco1 [GTS-43, 3-(2-Furylidene)anabaseine] | 640 nM | 
C(=Cc1ccco1)C=C1CCCN=C1c1cccnc1 [GTS-44, 3-(2-Furylpropenylidene)anabaseine] | 800 nM | 
CN(C)c1ccc(C=CC=C2CCCN=C2c2cccnc2)cc1 [DMACA, 3-(4-Dimethylaminocinnamylidene)anabaseine] | 400 nM | 
COc1ccc(C=C2CCCN=C2c2ccccc2)c(OC)c1 [GTS-63, 2-Phenyl-3-(2,4-dimethoxybenzylidene)-4,5,6-trihydropyridine] | > 5000 nM | 
CN(C)CCCOc1ccc(C=C2CCCN=C2c2cccnc2)cc1 [GTS-15, 3-(4-Dimethylaminopropoxy-benzylidene)anabaseine] | 1600 nM | 
6′-Methyl-3-(2,4-dimethoxybenzylidene)anabaseine [GTS-57] |  | Ki [1, 5]: 500 nM
Cc1ncccc1C1=NCCCC1 [GTS-27, 2′-Methylanabaseine] |  | Ki [1]: 33000 nM
